Measurements reported in patent US9067871B2, “Aminotetraline derivatives, pharmaceutical compositions containing them, and their use in therapy” (ABBVIE DEUTSCHLAND GMBH & CO KG, priority 2009, dated 2015).
Structures can show the parent of a compound that is named as a salt. Where two headings read alike, the source gives them in different places.

Molecular target: human GlyT1c transporter (Homo sapiens (Human), UniProt P48067)
Assay: Radioligand binding assay using recombinant CHO cell membranes expressing human GlyT1
Conditions: human GlyT1c-expressing CHO cell membranes, read-out: radioligand binding Kiapp
Text: 2. Radioligand binding assays using recombinant CHO cell membranes expressing human GlyT1: […]

human GlyT1c transporter, sequence (P48067 whole entry): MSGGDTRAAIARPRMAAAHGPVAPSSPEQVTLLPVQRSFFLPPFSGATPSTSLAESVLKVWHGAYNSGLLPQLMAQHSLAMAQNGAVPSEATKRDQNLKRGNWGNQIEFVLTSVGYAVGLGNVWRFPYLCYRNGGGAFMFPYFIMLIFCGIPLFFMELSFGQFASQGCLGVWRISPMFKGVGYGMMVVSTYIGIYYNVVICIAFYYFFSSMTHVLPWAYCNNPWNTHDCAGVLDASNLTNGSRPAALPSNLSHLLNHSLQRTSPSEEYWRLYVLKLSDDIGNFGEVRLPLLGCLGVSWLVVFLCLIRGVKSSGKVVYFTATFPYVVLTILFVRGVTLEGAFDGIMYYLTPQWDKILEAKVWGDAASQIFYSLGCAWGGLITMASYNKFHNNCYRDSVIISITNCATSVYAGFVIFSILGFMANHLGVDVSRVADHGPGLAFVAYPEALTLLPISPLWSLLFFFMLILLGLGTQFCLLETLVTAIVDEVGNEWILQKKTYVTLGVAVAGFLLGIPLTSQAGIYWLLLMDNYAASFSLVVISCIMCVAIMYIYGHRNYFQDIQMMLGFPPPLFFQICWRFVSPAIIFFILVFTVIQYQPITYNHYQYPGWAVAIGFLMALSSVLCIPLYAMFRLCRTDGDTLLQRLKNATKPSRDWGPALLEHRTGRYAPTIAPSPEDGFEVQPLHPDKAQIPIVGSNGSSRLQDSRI

SMILES | Ki [nM] | Ki (hydrochloride) [nM]
NC1CCc2ccc(OCCNS(=O)(=O)c3ccccc3)cc2C1Cc1ccccc1 (stereo not shown) [Example 99, N-[2-(7-Amino-8-benzyl-5,6,7,8-tetrahydro-naphthalen-2-yloxy)-ethyl]-benzenesulfonamide hydrochloride] | ≤ 100 | –
NC1CCc2ccc(OCCNS(=O)(=O)CCC(F)(F)F)cc2C1Cc1ccccc1 (stereo not shown) [Example 100, 3,3,3-Trifluoro-propane-1-sulfonic acid [2-(7-amino-8-benzyl-5,6,7,8-tetrahydronaphthalen-2-yloxy)-ethyl]amide hydrochloride] | – | ≤ 1000
CN(CCOc1ccc2c(c1)C(Cc1ccccc1)C(N1CCCC1)CC2)S(=O)(=O)c1cn(C)cn1 (stereo not shown) [Example 101, 1-Methyl-1H-imidazole-4-sulfonic acid [2-(8-benzyl-7-pyrrolidin-1-yl-5,6,7,8-tetrahydronaphthalen-2-yloxy)-ethyl]-methyl-amide hydrochloride] | ≤ 100 | –
NC1CCc2ccc(OCCNS(=O)(=O)C3CC3)cc2C1Cc1ccccc1 (stereo not shown) [Example 102, Cyclopropanesulfonic acid [2-(7-amino-8-benzyl-5,6,7,8-tetrahydro-naphthalen-2-yloxy)ethyl]-amide hydrochloride] | ≤ 1000 | –
CCC(=O)NCCOc1ccc2c(c1)C(Cc1ccccc1)C(N)CC2 (stereo not shown) [Example 103, N-[2-(7-Amino-8-benzyl-5,6,7,8-tetrahydro-naphthalen-2-yloxy)-ethyl]-propionamide hydrochloride] | ≤ 10000 | –
Cn1cnc(S(=O)(=O)NCCOc2ccc3c(c2)C(Cc2ccc(Cl)c(Cl)c2)C(N)CC3)n1 (stereo not shown) [Example 104, 1-Methyl-1H-[1,2,4]triazole-3-sulfonic acid {2-[7-amino-8-(3,4-dichloro-benzyl)-5,6,7,8-tetrahydro-naphthalen-2-yloxy]-ethyl}-amide] | ≤ 1000 | –
CN(CCOc1ccc2c(c1)C(Cc1ccccc1)C(N1CCC1)CC2)S(=O)(=O)c1cn(C)cn1 (stereo not shown) [Example 105, 1-Methyl-1H-imidazole-4-sulfonic acid [2-(7-azetidin-1-yl-8-benzyl-5,6,7,8-tetrahydronaphthalen-2-yloxy)-ethyl]-methyl-amide] | ≤ 100 | –
NC1CCc2ccc(OCCNS(=O)(=O)CC3CCC3)cc2C1Cc1ccc(Cl)c(Cl)c1 (stereo not shown) [Example 106, N-{2-[7-Amino-8-(3,4-dichloro-benzyl)-5,6,7,8-tetrahydro-naphthalen-2-yloxy]-ethyl}-Ccyclobutyl-methanesulfonamide hydrochloride] | ≤ 1000 | –
CCCS(=O)(=O)NCCOc1ccc2c(c1)C(Cc1cccc(F)c1)C(N)CC2 (stereo not shown) [Example 107, Propane-1-sulfonic acid {2-[7-amino-8-(3-fluoro-benzyl)-5,6,7,8-tetrahydro-naphthalen-2-yloxy]-ethyl}-amide hydrochloride] | ≤ 100 | –
CN(CCOc1ccc2c(c1)C(Cc1ccc(Cl)c(Cl)c1)C(N)CC2)S(=O)(=O)CC1CC1 (stereo not shown) [Example 108, N-{2-[7-Amino-8-(3,4-dichloro-benzyl)-5,6,7,8-tetrahydro-naphthalen-2-yloxy]-ethyl}-C-cyclopropyl-N-methyl-methanesulfonamide hydrochloride] | ≤ 10 | –
CN(CCOc1ccc2c(c1)C(Cc1ccccc1)C(N)CC2)S(=O)(=O)c1cnn(C)c1 (stereo not shown) [Example 109, 1-Methyl-1H-pyrazole-4-sulfonic acid [2-(7-amino-8-benzyl-5,6,7,8-tetrahydro-naphthalen-2-yloxy)-ethyl]-methyl-amide] | ≤ 100 | –
CCN(CCOc1ccc2c(c1)C(Cc1ccc(Cl)c(Cl)c1)C(N)CC2)S(=O)(=O)c1cnn(C)c1 (stereo not shown) [Example 110, N-(2-(7-Amino-8-(3,4-dichlorobenzyl)-5,6,7,8-tetrahydronaphthalen-2-yloxy)ethyl)-N-ethyl-1-methyl-1H-pyrazole-4-sulfonamide] | ≤ 1000 | –
CN(CCOc1ccc2c(c1)C(Cc1ccccc1)C(N1CCCC1)CC2)S(=O)(=O)c1cnn(C)c1 (stereo not shown) [Example 111, 1-Methyl-1H-pyrazole-4-sulfonic acid [2-(8-benzyl-7-pyrrolidin-1-yl-5,6,7,8-tetrahydronaphthalen-2-yloxy)-ethyl]-methyl-amide hydrochloride] | ≤ 100 | –
CN(CCOc1ccc2c(c1)C(Cc1ccccc1)C(N1CCC1)CC2)S(=O)(=O)c1cnn(C)c1 (stereo not shown) [Example 112, 1-Methyl-1H-pyrazole-4-sulfonic acid [2-(7-azetidin-1-yl-8-benzyl-5,6,7,8-tetrahydronaphthalen-2-yloxy)-ethyl]-methyl-amide hydrochloride] | ≤ 100 | –
CCN(CCOc1ccc2c(c1)C(Cc1ccccc1)C(N)CC2)S(=O)(=O)c1cnn(C)c1 (stereo not shown) [Example 113, N-(2-(7-Amino-8-benzyl-5,6,7,8-tetrahydronaphthalen-2-yloxy)ethyl)-N-ethyl-1-methyl-1H-pyrazole-4-sulfonamide hydrochloride] | ≤ 100 | –
CCCCCS(=O)(=O)NCCOc1ccc2c(c1)C(Cc1ccc(Cl)c(Cl)c1)C(N)CC2 (stereo not shown) [Example 114, N-(2-(7-Amino-8-(3,4-dichlorobenzyl)-5,6,7,8-tetrahydronaphthalen-2-yloxy)ethyl)pentane-1-sulfonamide hydrochloride] | ≤ 1000 | –

SMILES | Ki [nM] | Ki (hydrochloride) [nM]
Cn1cnc(S(=O)(=O)NCCOc2ccc3c(c2)C(Cc2ccccc2)C(N2CCCC2)CC3)c1 (stereo not shown) [Example 116, N-(2-(8-Benzyl-7-(pyrrolidin-1-yl)-5,6,7,8-tetrahydronaphthalen-2-yloxy)ethyl)-1-methyl-1H-imidazole-4-sulfonamide hydrochloride] | – | ≤ 10
CCCS(=O)(=O)NCCOc1ccc2c(c1)C(Cc1ccc(F)c(Cl)c1)C(N)CC2 (stereo not shown) [Example 120, N-(2-{[7-Amino-8-(3-chloro-4-fluorobenzyl)-5,6,7,8-tetrahydronaphthalen-2-yl]oxy}ethyl)propane-1-sulfonamide hydrochloride] | ≤ 100 | –
NC1CCc2ccc(OCCNS(=O)(=O)CC3CC3)cc2C1Cc1ccccc1 (stereo not shown) [Example 121, N-(2-{[7-Amino-8-benzyl-5,6,7,8-tetrahydronaphthalen-2-yl]oxy}ethyl)-1-cyclopropylmethanesulfonamide hydrochloride] | ≤ 10 | –
NC1CCc2ccc(OCCNC(=O)CC3CC3)cc2C1Cc1ccc(Cl)c(Cl)c1 (stereo not shown) [Example 122, N-(2-{[7-Amino-8-(3,4-dichlorobenzyl)-5,6,7,8-tetrahydronaphthalen-2-yl]oxy}ethyl)-2-cyclopropylacetamide hydrochloride] | ≤ 10000 | –
NC1CCc2ccc(OCCNC(=O)c3ccccc3)cc2C1Cc1ccc(Cl)c(Cl)c1 (stereo not shown) [Example 123, N-(2-{[7-Amino-8-(3,4-dichlorobenzyl)-5,6,7,8-tetrahydronaphthalen-2-yl]oxy}ethyl)benzamide hydrochloride] | ≤ 10000 | –
CCN(CCOc1ccc2c(c1)C(Cc1ccccc1)C(N1CCCC1)CC2)S(=O)(=O)c1cnn(C)c1 (stereo not shown) [Example 124, N-(2-{[8-Benzyl-7-(pyrrolidin-1-yl)-5,6,7,8-tetrahydronaphthalen-2-yl]oxy}ethyl)-N-ethyl-1-methyl-1H-pyrazole-4-sulfonamide hydrochloride] | ≤ 1000 | –
NC1CCc2ccc(OCCNS(=O)(=O)CCC3CC3)cc2C1Cc1ccc(Cl)c(Cl)c1 (stereo not shown) [Example 125, N-(2-{[7-Amino-8-(3,4-dichlorobenzyl)-5,6,7,8-tetrahydronaphthalen-2-yl]oxy}ethyl)-2-cyclopropylethanesulfonamide hydrochloride] | ≤ 1000 | –
CN(CCOc1ccc2c(c1)C(Cc1ccc(Cl)c(Cl)c1)C(N1CCCC1)CC2)S(=O)(=O)CC1CC1 (stereo not shown) [Example 126, C-Cyclopropyl-N-{2-[8-(3,4-dichloro-benzyl)-7-pyrrolidin-1-yl-5,6,7,8-tetrahydronaphthalen-2-yloxy]-ethyl}-N-methyl-methanesulfonamide hydrochloride] | ≤ 10 | –
CN(CCOc1ccc2c(c1)C(Cc1ccccc1)C(N1CCCC1)CC2)S(=O)(=O)CC1CC1 (stereo not shown) [Example 127, N-(2-{[8-Benzyl-7-(pyrrolidin-1-yl)-5,6,7,8-tetrahydronaphthalen-2-yl]oxy}ethyl)-1-cyclopropyl-N-methylmethanesulfonamide hydrochloride] | ≤ 100 | –
NC1CCc2ccc(OCCNS(=O)(=O)CC3CC3)cc2C1Cc1ccc(Cl)cc1 (stereo not shown) [Example 128, N-(2-{[7-Amino-8-(4-chlorobenzyl)-5,6,7,8-tetrahydronaphthalen-2-yl]oxy}ethyl)-1-cyclopropylmethanesulfonamide hydrochloride] | ≤ 100 | –
CN(CCOc1ccc2c(c1)C(Cc1ccc(Cl)cc1)C(N)CC2)S(=O)(=O)CC1CC1 (stereo not shown) [Example 129, N-(2-{[7-Amino-8-(4-chlorobenzyl)-5,6,7,8-tetrahydronaphthalen-2-yl]oxy}ethyl)-1-cyclopropyl-N-methylmethanesulfonamide hydrochloride] | ≤ 10 | –
CN(CCOc1ccc2c(c1)C(Cc1ccccc1)C(N)CC2)S(=O)(=O)CC1CC1 (stereo not shown) [Example 130, N-[2-(7-Amino-8-benzyl-5,6,7,8-tetrahydro-naphthalen-2-yloxy)-ethyl]-C-cyclopropyl-Nmethyl-methanesulfonamide hydrochloride] | ≤ 10 | –
NC1CCc2ccc(OCCNS(=O)(=O)CC3CC3)cc2C1Cc1ccc(F)c(F)c1 (stereo not shown) [Example 131, N-(2-{[7-Amino-8-(3,4-difluorobenzyl)-5,6,7,8-tetrahydronaphthalen-2-yl]oxy}ethyl)-1-cyclopropylmethanesulfonamide hydrochloride] | ≤ 100 | –
O=S(=O)(CC1CC1)NCCOc1ccc2c(c1)C(Cc1ccc(Cl)c(Cl)c1)C(N1CCCC1)CC2 (stereo not shown) [Example 132, C-Cyclopropyl-N-{2-[8-(3,4-dichloro-benzyl)-7-pyrrolidin-1-yl-5,6,7,8-tetrahydronaphthalen-2-yloxy]-ethyl}-methanesulfonamide hydrochloride] | ≤ 100 | –
O=S(=O)(CC1CC1)NCCOc1ccc2c(c1)C(Cc1ccccc1)C(N1CCCC1)CC2 (stereo not shown) [Example 133, N-(2-{[8-Benzyl-7-(pyrrolidin-1-yl)-5,6,7,8-tetrahydronaphthalen-2-yl]oxy}ethyl)-1-cyclopropylmethanesulfonamide hydrochloride] | ≤ 100 | –
